The target in data set [1] is T1, ribose-5-phosphate isomerase (Spinacia oleracea, UniProt Q8RU73).
T1 sequence (Q8RU73 whole entry): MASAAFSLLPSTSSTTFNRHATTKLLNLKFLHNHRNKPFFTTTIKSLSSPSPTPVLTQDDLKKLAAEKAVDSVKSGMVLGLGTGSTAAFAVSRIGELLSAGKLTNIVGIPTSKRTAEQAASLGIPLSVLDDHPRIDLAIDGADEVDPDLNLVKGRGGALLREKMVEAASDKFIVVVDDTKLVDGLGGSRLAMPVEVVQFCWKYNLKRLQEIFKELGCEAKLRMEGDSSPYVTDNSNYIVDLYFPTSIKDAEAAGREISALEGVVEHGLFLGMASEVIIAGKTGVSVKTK
Kind of data set: Competitive inhibition of Spinacia oleracea RPIA using D-ribose-5-phosphate as substrate.

Data set [2] deals with T2, Ribose-5-phosphate isomerase B (Escherichia coli (strain K12), UniProt P37351).
T2 sequence (P37351 whole entry): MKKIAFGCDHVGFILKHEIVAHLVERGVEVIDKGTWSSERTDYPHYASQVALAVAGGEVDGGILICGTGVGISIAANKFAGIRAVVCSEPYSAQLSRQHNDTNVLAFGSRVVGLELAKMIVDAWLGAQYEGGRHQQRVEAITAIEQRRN
The data set is described as follows: Competitive inhibition of Escherichia coli RPIB using D-ribose-5-phosphate as substrate.

The target in data set [3] is T3, Ribose-5-phosphate isomerase B (Mycobacterium tuberculosis, UniProt P9WKD7).
T3 sequence (P9WKD7 whole entry): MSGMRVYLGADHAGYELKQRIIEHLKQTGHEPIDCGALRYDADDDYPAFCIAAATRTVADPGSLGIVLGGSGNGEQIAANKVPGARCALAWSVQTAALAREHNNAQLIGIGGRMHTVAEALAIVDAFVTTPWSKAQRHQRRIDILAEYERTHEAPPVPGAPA
Kind of data set: Competitive inhibition of Mycobacterium tuberculosis RPIB using D-ribose-5-phosphate as substrate.

Data set [4] concerns the target T1, ribose-5-phosphate isomerase. Kind of data set: Competitive inhibition of Spinacia oleracea RPIA assessed as inhibition constant using D-ribose-5-phosphate as substrate by Cheng-Prusoff equation analysis.
Data set [5] has as its target T2, Ribose-5-phosphate isomerase B. Kind of data set: Competitive inhibition of Escherichia coli RPIB assessed as inhibition constant using D-ribose-5-phosphate as substrate by Cheng-Prusoff equation analysis.
Data set [6] has as its target T3, Ribose-5-phosphate isomerase B. The data set is described as follows: Competitive inhibition of Mycobacterium tuberculosis RPIB assessed as inhibition constant using D-ribose-5-phosphate as substrate by Cheng-Prusoff equation analysis.
Data set [7] in a line: Stability in Tris-HCl buffer spiked with alkaline phosphatase incubated for 24 hrs. The class given is physicochemical.
A short description of data set [8]: Stability in Tris-HCl buffer spiked with calf serum incubated for 24 hrs. The class given is physicochemical, cell-free. Conditions: cattle.
Data set [9] can be described thus: Stability in Tris-HCl buffer incubated for 24 hrs. The class given is physicochemical.
Data set [10] in a line: Stability in Tris-HCl buffer assessed as compound hydrolysis incubated for 24 hrs. The class given is physicochemical. The conditions noted are these: read-out: Drug degradation.
The target in data set [11] is T2, Ribose-5-phosphate isomerase B. Kind of data set: Competitive inhibition of Escherichia coli RPIB using D-ribose-5-phosphate as substrate by spectrophotometric analysis.
The target in data set [12] is T3, Ribose-5-phosphate isomerase B. Kind of data set: Competitive inhibition of Mycobacterium tuberculosis RPIB using D-ribose-5-phosphate as substrate by spectrophotometric analysis.
The target is the same in data set [13]. The data set is described as follows: Competitive inhibition of Mycobacterium tuberculosis RPIB using D-ribose-5-phosphate as substrate assessed as inhibition constant by spectrophotometric analysis.

For `O=S(=O)(O)CC[C@H]1OC(O)[C@H](O)[C@@H]1O` (some centres not stated), the IC50 (usually the point on the concentration scale where inhibition reaches its midpoint) in data set [1] turned out to be 620 µM; in [2], 480 µM; in [3], 240 µM. The Ki (usually the dissociation constant of the complex between target and ligand, obtained from inhibition or displacement) in data set [4] was determined as 290 µM; in [5], 170 µM; in data set [6], 110 µM. Further, the Stability result in data set [7], in [8] and in data set [9] was “Stable” in each case.

In the case of `O=C(O)C(C[C@H]1OC(O)[C@H](O)[C@@H]1O)C(=O)O` (some centres not stated), the figures for the IC50 in data set [1], in data set [2] and in [3] were 980 µM, 1340 µM and 810 µM, respectively. Further, the Ki was found to be 450 µM in data set [4], 670 µM in data set [5] and 340 µM in [6]. The Stability result in data set [7], in data set [8] and in [9] was “Stable” each time.

Consider `CC(C(C(=O)O)C(=O)O)[C@@H](O)[C@@H](O)[C@@H](O)CCP(=O)(O)O` (some centres not stated), for which the IC50 in [1] was above 1500 µM; in data set [2], 1360 µM; in [3], 200 µM. Besides, the Ki is above 750 µM in [4] and 80 µM in [6]. Further, the Stability result in data set [7], in data set [8] and in data set [9] was “Stable” throughout.

Turning to `CC(C(C(=O)O)C(=O)O)[C@@H](O)[C@@H](O)[C@@H](O)CCC(=O)O` (some centres not stated), the IC50 in data set [1] was above 1500 µM; in [2] it was above 1500 µM; in data set [3], 470 µM. Further, the values for the Ki in data set [4] and in data set [6] were above 750 µM and 290 µM, respectively. For the same compound, the Stability result in [7], in data set [8] and in data set [9] was “Stable” in each case.

Consider `O=P(O)(O)OC[C@H]1O[C@@H](O)[C@H](O)[C@@H]1O`, for which the Stability entry in data set [7] and in data set [8] was “Unstable” in each case. Moreover, the degraded at 24 h in data set [10] is 10%.

On to `O=S(=O)(O)OC[C@H]1OC(O)[C@H](O)[C@@H]1O` (some centres not stated), for which the IC50 is 320 µM in [1], 160 µM in data set [2] and 120 µM in data set [3]. Besides, the Ki in [4] was determined as 180 µM; in data set [5], 90 µM; in data set [6] it was 40 µM. Further, the Stability result in data set [7] is listed as “Stable”; in data set [8], “Unstable”; in data set [9] it was “Stable”.

Regarding `O=P(O)(O)CC[C@H]1OC(O)[C@H](O)[C@@H]1O` (some centres not stated), the IC50 in data set [1] was above 3000 µM; in data set [2], 2410 µM; in [3], above 3000 µM. For the same compound, the Stability entry in [7], in data set [8] and in data set [9] was “Stable” throughout.

Consider `O=C(O)[C@@H](O)[C@@H](O)[C@@H](O)COP(=O)(O)O` (single isomer, unassigned), for which the IC50 in data set [1] is 95 µM; in data set [2] it was 1400 µM; in [3], 21 µM; in [11], 1310 µM; in [12], 31 µM. Moreover, the Ki came to 38 µM in [4] and 9 µM in data set [13]. Further, the Stability entry in data set [7] and in data set [8] was “Unstable” in each case. Also, in [10], the degraded at 24 h stood at 20%.

The values above are taken from ChEMBL document CHEMBL5579804, “Synthesis and kinetic evaluation of phosphomimetic inhibitors targeting type B ribose-5-phosphate isomerase from Mycobacterium tuberculosis” (Bioorg Med Chem Lett, 2024).
